Tested on: leukemia cell lines (K562, BV173, Ba/F3 p190, Ba/F3 p210, MYL-R, K562-IMR, and KBM5-STI)
Assay: Comparison of cytotoxic activity across leukemia cell lines (MTT assay)
Assay type: cell-based
Conditions: Example 3
Experimental: The proliferation inhibitory action in leukemia cell lines was evaluated using a modified dimethyl-thiazole-diphenyl-tetrazolium (MTT) assay as follows.
The hepatocyte line and leukemia cell lines (K562, BV173, Ba/F3 p190, Ba/F3 p210, MYL-R, K562-IMR, and KBM5-STI) were used in this example. The FA-HP-β-CyD synthesized in Example 1 was used.
The cell viability was evaluated using the trypan blue dye exclusion method. Cell proliferation was evaluated using a Cell Counting Kit-8 (Dojindo, Japan), which is an MTT assay. 2×10^4 of each cell was seeded with 100 μL RPMI1640 medium (Sigma-Aldrich, USA) per well to a flatbottom 96-well plate (Greiner Labortechnik, Hamburg, Germany), and incubation for 72 hours was carried out with exposure to HP-β-CyD and FA-HP-β-CyD at different concentrations (0 mM (control: CT), 0.05 mM, 0.1 mM, 0.25 mM, 0.5 mM, and 1 mM).
According to Table 1, IC50 for FA-HP-β-CyD in the leukemia cell lines (K562, BV173, Ba/F3 p190, Ba/F3 p210, MYL-R, K562-IMR, and KBM5-STI) is shown to be about ⅕ to about 1/20 of that for HP-β-CyD. […] FA-HP-β-CyD is thus shown to have a stronger cytotoxic activity than HP-β-CyD.

Substance: folic acid-appended hydroxypropyl-β-cyclodextrin [FA-HP-β-CyD]
- amount giving the equivalent anti-leukemia action relative to un-appended HP-β-CyD: approximately one-tenth the amount
